Literature values in patent publication US20140194454A1, “COMBINATIONS OF TROSPIUM AND SALIVARY STIMULANTS FOR THE TREATMENT OF OVERACTIVE BLADDER” (TheraVida, Inc., priority 2011, published 2014).

Conditions: 5 mg of pilocarpine

With `CC[C@@H]1C(=O)OC[C@@H]1Cc1cncn1C` [pilocarpine] as the molecule, how does the “time of maximum saliva output after administration” value read?
The value was “about 30 minutes”.
